Legend:
[1] = biological target: Beta-2 adrenergic receptor (Cavia porcellus, UniProt Q8K4Z4); assay: Beta-2 adrenergic receptor antagonistic activity on guinea pig tracheal chains; assay type: functional; settings: read-out: pA2 (converted)
[2] = biological target: Beta-1 adrenergic receptor (Cavia porcellus, UniProt B0FL73); assay: Compound was tested for its Beta-1 adrenergic receptor antagonistic activity on guinea pig atria; assay type: functional; settings: read-out: pA2 (converted)
[3] = biological target: Beta-2 adrenergic receptor (Bos taurus, UniProt Q28044); assay: Compound was tested for inhibition of [3H]dihydroalprenolol radioligand binding to Beta-2 adrenergic receptor in calf lung membranes.; assay type: cell membranes
Beta-2 adrenergic receptor (Bos taurus, UniProt Q28044), sequence (Q28044 whole entry): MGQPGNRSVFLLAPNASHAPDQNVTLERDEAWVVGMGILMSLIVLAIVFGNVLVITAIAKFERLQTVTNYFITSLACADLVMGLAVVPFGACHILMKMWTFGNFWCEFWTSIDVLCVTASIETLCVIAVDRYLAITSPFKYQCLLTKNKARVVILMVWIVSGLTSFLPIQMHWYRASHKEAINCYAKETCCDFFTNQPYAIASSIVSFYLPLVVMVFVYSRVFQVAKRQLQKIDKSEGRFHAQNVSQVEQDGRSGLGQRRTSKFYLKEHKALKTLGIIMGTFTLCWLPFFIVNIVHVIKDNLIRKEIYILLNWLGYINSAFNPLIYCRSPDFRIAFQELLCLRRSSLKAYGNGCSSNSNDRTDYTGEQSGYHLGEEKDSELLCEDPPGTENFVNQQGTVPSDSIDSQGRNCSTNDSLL

Beta-1 adrenergic receptor, sequence (B0FL73 whole entry): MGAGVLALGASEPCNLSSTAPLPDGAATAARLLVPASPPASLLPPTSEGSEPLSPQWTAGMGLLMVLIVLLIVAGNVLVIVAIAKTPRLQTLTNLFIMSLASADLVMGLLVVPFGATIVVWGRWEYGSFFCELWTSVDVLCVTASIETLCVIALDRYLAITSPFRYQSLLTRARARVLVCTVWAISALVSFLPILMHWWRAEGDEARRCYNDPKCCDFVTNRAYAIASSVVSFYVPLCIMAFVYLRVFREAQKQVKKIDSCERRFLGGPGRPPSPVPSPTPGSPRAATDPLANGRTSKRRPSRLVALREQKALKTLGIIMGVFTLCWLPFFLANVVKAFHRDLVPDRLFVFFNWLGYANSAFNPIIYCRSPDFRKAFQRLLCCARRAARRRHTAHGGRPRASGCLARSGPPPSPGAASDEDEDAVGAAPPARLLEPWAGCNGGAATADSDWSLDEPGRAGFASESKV
Beta-2 adrenergic receptor (Cavia porcellus, UniProt Q8K4Z4), sequence (Q8K4Z4 whole entry): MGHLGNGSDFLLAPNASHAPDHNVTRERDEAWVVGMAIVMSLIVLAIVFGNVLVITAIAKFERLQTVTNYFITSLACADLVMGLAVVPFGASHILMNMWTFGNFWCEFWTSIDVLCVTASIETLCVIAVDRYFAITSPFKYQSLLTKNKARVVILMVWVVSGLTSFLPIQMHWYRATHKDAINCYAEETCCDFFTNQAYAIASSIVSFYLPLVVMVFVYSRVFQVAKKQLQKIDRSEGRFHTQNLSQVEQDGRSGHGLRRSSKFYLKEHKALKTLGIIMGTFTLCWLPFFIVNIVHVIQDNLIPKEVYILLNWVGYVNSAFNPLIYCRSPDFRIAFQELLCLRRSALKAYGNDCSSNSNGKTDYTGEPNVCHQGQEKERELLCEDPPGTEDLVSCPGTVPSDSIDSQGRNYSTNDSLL

Row | Compound | Kb [1] [nM] | Kb [2] [nM] | IC50 [3] [nM]
1 | CCC(C)(C)NCC(O)CON=C1c2ccccc2-c2ccccc21 (stereo unspecified) | 85.1 | 34.7 | –
2 | CC(C)(C)NC[C@@H](O)CON=C1c2ccccc2-c2ccccc21 | 18.2 | 13.2 | 20.1
3 | CCC(C)(C)NC[C@H](O)CON=C1c2ccccc2-c2ccccc21 | 74.1 | 16.6 | –
4 | Cc1ccc(OCC(O)CNC(C)C)c2c1CCC2 (stereo unspecified) | 31.6 | 97.7 | 17.6
5 | CC(C)(C)NC[C@H](O)CON=C1c2ccccc2-c2ccccc21 | 17 | 37.2 | 30.8
6 | CC(C)(C)NCC(O)CON=C1c2ccccc2-c2ccccc21 (stereo unspecified) | 66.1 | 33.9 | 24.6

— ChEMBL document CHEMBL1122110, “Use of (S)-(trifloxymethyl)oxirane in the synthesis of a chiral beta-adrenoceptor antagonist, (R)- and (S)-9-[[3-(tert-butylamino)-2-hydroxypropyl]oximino]fluorene” (J Med Chem, 1982)
